From article PMC6437697 (Journal of Medicinal Chemistry, 2019)

Experiments:
Experiment in all cases: KINOMEscan
Type in all cases: binding
Details in all cases: read-out: % control activity remaining
[1] = molecular target: T1, ABL1(F317I)-phosphorylated (Homo sapiens, UniProt P00519, F317I)
T1 construct: purchased Eurofins DiscoverX KINOMEscan

MEK3 = molecular target: T2, MEK3 (Homo sapiens, UniProt P46734)
T2 construct: purchased Eurofins DiscoverX KINOMEscan
T2 sequence (P46734 1-347): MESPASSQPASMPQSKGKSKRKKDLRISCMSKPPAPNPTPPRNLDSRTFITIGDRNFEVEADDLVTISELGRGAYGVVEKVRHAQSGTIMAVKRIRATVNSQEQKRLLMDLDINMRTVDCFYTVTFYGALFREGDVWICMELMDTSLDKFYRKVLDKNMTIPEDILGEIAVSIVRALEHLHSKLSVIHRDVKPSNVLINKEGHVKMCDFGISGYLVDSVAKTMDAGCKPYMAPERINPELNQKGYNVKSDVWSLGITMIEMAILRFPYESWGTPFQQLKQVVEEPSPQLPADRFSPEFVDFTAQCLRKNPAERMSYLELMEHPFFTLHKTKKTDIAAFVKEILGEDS

PDPK1 = molecular target: T3, PDPK1 (Homo sapiens, UniProt O15530)
T3 construct: purchased Eurofins DiscoverX KINOMEscan
T3 sequence (O15530 1-556): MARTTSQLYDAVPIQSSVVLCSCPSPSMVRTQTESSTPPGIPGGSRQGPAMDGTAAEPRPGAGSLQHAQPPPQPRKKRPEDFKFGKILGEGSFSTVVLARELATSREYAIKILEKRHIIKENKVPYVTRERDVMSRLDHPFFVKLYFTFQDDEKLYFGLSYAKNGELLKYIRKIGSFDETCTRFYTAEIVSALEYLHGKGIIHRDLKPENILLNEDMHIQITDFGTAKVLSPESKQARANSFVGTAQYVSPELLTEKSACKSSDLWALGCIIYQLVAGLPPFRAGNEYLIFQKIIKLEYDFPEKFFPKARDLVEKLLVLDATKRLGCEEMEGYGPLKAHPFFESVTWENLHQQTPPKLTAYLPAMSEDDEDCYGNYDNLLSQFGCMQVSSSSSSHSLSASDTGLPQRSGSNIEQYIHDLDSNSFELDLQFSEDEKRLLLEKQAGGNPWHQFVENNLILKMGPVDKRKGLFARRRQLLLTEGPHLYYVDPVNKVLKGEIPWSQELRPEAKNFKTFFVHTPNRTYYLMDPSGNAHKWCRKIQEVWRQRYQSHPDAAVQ

SRPK1 = molecular target: T4, SRPK1 (Homo sapiens, UniProt Q96SB4)
T4 construct: purchased Eurofins DiscoverX KINOMEscan

RIPK4 = molecular target: T5, RIPK4 (Homo sapiens, UniProt P57078)
T5 construct: purchased Eurofins DiscoverX KINOMEscan
T5 sequence (P57078 1-832): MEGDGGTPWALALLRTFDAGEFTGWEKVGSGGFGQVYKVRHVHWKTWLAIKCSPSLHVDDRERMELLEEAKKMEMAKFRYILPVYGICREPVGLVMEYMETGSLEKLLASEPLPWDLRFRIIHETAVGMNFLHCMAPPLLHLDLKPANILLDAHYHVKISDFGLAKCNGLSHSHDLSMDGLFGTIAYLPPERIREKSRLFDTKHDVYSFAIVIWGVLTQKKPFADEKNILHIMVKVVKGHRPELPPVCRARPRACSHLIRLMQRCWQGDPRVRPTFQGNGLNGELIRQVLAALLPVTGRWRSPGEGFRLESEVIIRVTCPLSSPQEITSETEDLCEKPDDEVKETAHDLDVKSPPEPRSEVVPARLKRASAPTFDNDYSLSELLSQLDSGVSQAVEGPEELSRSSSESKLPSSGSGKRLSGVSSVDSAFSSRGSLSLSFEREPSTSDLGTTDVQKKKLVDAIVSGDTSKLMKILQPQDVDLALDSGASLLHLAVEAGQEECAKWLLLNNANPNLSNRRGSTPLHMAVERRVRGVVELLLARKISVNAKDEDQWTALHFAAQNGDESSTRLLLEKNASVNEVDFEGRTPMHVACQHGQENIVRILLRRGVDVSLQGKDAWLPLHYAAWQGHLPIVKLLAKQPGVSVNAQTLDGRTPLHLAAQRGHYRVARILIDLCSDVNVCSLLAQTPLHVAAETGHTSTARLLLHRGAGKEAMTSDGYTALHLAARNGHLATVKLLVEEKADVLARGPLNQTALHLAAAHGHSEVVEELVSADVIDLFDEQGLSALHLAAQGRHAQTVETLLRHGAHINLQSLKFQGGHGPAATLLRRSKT

EPHA1 = molecular target: T6, EPHA1 (Homo sapiens, UniProt P21709)
T6 construct: purchased Eurofins DiscoverX KINOMEscan
T6 sequence (P21709 26-976): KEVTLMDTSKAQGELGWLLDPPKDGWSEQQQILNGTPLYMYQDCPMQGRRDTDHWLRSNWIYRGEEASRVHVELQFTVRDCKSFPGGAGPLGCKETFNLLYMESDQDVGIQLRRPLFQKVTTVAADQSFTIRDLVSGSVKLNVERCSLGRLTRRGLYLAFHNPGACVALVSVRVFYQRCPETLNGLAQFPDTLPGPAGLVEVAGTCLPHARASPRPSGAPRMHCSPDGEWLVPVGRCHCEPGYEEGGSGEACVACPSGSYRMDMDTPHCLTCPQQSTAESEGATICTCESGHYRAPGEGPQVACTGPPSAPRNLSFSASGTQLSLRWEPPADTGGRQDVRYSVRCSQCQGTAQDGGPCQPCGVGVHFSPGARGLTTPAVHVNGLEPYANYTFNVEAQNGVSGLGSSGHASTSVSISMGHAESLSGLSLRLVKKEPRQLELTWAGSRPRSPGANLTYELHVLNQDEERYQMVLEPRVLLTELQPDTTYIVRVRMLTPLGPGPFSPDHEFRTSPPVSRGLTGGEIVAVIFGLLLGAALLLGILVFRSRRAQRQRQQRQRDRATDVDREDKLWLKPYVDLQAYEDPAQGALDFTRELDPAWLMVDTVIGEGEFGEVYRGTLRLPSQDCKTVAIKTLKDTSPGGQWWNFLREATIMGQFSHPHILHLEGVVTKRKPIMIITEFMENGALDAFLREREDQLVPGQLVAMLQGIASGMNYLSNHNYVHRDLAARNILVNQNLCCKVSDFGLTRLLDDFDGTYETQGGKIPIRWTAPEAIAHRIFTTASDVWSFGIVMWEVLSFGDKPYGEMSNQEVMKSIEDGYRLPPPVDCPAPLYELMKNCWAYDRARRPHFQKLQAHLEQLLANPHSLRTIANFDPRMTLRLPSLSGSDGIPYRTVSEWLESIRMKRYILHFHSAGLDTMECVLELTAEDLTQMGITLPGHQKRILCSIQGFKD

[2] = molecular target: T7, ABL1(Y253F)-phosphorylated (Homo sapiens, UniProt P00519, Y253F)
T7 construct: purchased Eurofins DiscoverX KINOMEscan

YANK1 = molecular target: T8, YANK1 (Homo sapiens, UniProt Q8WU08)
T8 construct: purchased Eurofins DiscoverX KINOMEscan
T8 sequence (Q8WU08 whole entry): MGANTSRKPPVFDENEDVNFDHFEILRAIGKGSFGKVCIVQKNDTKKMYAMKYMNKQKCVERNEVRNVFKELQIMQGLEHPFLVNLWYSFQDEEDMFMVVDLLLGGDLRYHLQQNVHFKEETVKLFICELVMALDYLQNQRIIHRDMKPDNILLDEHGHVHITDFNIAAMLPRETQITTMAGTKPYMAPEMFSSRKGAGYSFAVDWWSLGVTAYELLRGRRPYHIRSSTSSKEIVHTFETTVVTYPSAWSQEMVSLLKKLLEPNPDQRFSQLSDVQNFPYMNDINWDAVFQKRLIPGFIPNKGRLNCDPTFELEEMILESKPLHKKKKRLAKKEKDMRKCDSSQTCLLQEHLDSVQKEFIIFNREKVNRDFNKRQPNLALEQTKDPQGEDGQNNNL

T4 sequence (Q96SB4 whole entry): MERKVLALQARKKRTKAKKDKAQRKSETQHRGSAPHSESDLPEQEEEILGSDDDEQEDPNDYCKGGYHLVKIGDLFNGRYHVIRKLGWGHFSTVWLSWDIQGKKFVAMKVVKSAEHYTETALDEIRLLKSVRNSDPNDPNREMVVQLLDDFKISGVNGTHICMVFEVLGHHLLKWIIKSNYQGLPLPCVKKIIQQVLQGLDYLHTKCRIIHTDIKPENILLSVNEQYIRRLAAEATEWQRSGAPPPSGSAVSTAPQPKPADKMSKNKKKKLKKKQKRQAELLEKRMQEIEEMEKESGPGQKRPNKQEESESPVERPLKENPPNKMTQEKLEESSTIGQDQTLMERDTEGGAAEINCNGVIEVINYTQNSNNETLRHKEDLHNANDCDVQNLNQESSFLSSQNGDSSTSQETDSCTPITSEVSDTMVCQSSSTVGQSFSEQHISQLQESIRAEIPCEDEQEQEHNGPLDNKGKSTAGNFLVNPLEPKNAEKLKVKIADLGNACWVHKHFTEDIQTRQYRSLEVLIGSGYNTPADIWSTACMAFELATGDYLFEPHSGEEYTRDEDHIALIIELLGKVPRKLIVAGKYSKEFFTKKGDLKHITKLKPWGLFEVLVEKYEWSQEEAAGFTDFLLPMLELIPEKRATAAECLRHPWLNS

Structure (SMILES): Clc1cc(NCC2CC2)c2ncc(-c3ccc4[nH]ncc4c3)n2n1 [compound 2, 6-Chloro-N-(cyclopropylmethyl)-3-(1H-indazol-5-yl)imidazo[1,2-b]pyridazin-8-amine]
- remaining binding at 1 µM [1]: 93%
- remaining binding at 1 µM (MEK3): 87%
- remaining binding at 1 µM (PDPK1): 88%
- remaining binding at 1 µM (SRPK1): 100%
- remaining binding at 1 µM (RIPK4): 96%
- remaining binding at 1 µM (EPHA1): 80%
- remaining binding at 1 µM [2]: 71%
- remaining binding at 1 µM (YANK1): 95%

Structure (SMILES): O=C(CN1CCOCC1)N[C@H]1CC[C@H](Nc2cc(Cl)nn3c(-c4ccc5[nH]ncc5c4)cnc23)CC1 [compound 26]
- remaining binding at 1 µM [1]: 8.1%
- remaining binding at 1 µM (MEK3): 100%
- remaining binding at 1 µM (PDPK1): 100%
- remaining binding at 1 µM (SRPK1): 79%
- remaining binding at 1 µM (RIPK4): 95%
- remaining binding at 1 µM (EPHA1): 84%
- remaining binding at 1 µM [2]: 55%
- remaining binding at 1 µM (YANK1): 98%

Structure (SMILES): CN1CCC(CNc2cc(Cl)nn3c(-c4cc5nc(Nc6ccccc6)[nH]c5cc4F)cnc23)CC1 [compound 31, 6-Chloro-3-(6-fluoro-2-(phenylamino)-1H-benzo[d]imidazol-5-yl)-N-((1-methylpiperidin-4-yl)methyl)imidazo[1,2-b]pyridazin-8-amine]
- remaining binding at 1 µM [1]: 76%
- remaining binding at 1 µM (MEK3): 88%
- remaining binding at 1 µM (PDPK1): 100%
- remaining binding at 1 µM (SRPK1): 84%
- remaining binding at 1 µM (RIPK4): 98%
- remaining binding at 1 µM (EPHA1): 99%
- remaining binding at 1 µM [2]: 75%
- remaining binding at 1 µM (YANK1): 73%
